The values below come from ChEMBL document CHEMBL1146706, “New orally active PDE4 inhibitors with therapeutic potential” (Bioorg Med Chem Lett, 2004).

The target of one test is Phosphodiesterase 4 (Homo sapiens, UniProt P27815+Q08499+Q07343+Q08493). Kind of test: Inhibition of phosphodiesterase 4 (PDE4) from U937 cells. Format: cell-based. The following applies: u-937.
Test [1] relates to Mustela putorius furo. Put plainly: Emetic effect in fasted ferrets at 10 mg/kg peroral dose (n=3). The test is classed as functional. The following applies: route oral.
Test [2] concerns Mustela putorius furo. Put plainly: Emetic effect in fasted ferrets at 3 mg/kg peroral dose (n=2). The settings on record: route oral. The test is classed as functional.
In test [3] the test system is Mustela putorius furo. Put plainly: Emetic effect in fasted ferrets at 30 mg/kg peroral dose (n=2). The test is classed as functional. The following applies: route oral.
The subject of test [4] is Cavia porcellus. Put plainly: In vivo inhibition of SRS-A mediated bronchoconstriction in guinea pig at 10 mg/kg peroral dose. Format: functional. The settings on record: Lung, route oral.
The species entered for another test is Homo sapiens. Put plainly: Inhibition of TNF-alpha production in human whole blood. The test is classed as functional, organism-based.
The species entered for test [5] is Rattus norvegicus. Put plainly: Inhibition of gastric emptying in rats by peroral dose. Format: functional. The following applies: Stomach, po, read-out: ID50 (the source's name).
Test [6] relates to Rattus norvegicus. Put plainly: Inhibition of lipopolysaccharide-induced tumor necrosis factor alpha production in rats by peroral administration (n=7). The test is classed as functional. The following applies: po, read-out: ID50 (the source's name).
Test [7] deals with Rattus norvegicus. Put plainly: Inhibition of lipopolysaccharide-induced tumor necrosis factor alpha production in rats at 10 mg/kg peroral dose (n=7). The settings on record: route oral. The test is classed as functional.
Test [8] has as its system Mustela putorius furo. Kind of test: Emetic effect in fasted ferrets at 10 mg/kg peroral dose (n=2). The test is classed as functional. The following applies: route oral.
In test [9] the test system is Cavia porcellus. Put plainly: In vivo inhibition of slow reacting substance of anaphylaxis (SRS-A) mediated bronchoconstriction in guinea pig. The test is classed as functional, organism-based. The settings on record: Lung.
For test [10], the system named is Rattus norvegicus. Put plainly: Inhibition of gastric emptying in rats […] peroral dose. The test is classed as functional. The settings on record: Stomach, route oral, read-out: ID50 (the source's name).
Test [11] concerns Rattus norvegicus. Kind of test: Inhibition of lipopolysaccharide-induced tumor necrosis factor alpha production in rats at 3 mg/kg peroral dose (n=7). The following applies: route oral. Format: functional.
Test [12] concerns Rattus norvegicus. Put plainly: Inhibition of lipopolysaccharide-induced tumor necrosis factor alpha production in rats by peroral administration. The settings on record: po, read-out: ID50 (the source's name). The test is classed as functional.

`Cc1nn(C)c2ncc(C(N)=O)c(Nc3cccc(OC4CCCCC4)c3)c12` returned an IC50 at Phosphodiesterase 4 above 0.1 µM.
As for `COC(=O)N1CC[C@H](Oc2cccc(Nc3c(C(N)=O)cnc4c3c(C)nn4C)c2)C1`, the No. of ferrets in the test with Mustela putorius furo [1] is 0; in the test on Mustela putorius furo [2], 0; in the test on Mustela putorius furo [3], 2. The inhibition in vivo at 10 mg/kg in the test with Cavia porcellus [4] is 45%. The IC50 in the test filed under Homo sapiens is 4.8 µM; on Phosphodiesterase 4, 0.01 µM. Moreover, the ED50 in the test filed under Rattus norvegicus [5] turned out to be 15 mg/kg; in the test with Rattus norvegicus [6] it was 1 mg/kg.
In turn, `COc1ccc(Nc2c(C(N)=O)cnc3c2c(C)nn3C)cc1` yielded an IC50 against Phosphodiesterase 4 above 0.1 µM.
On Phosphodiesterase 4, `Cc1nn(C)c2ncc(C(N)=O)c(Nc3cccc(O)c3)c12` yielded an IC50 of 0.097 µM. Further, in the test on Rattus norvegicus [7], testing at 10 mg/kg gave an inhibition in vivo of 40%.
`Cc1nn(C)c2ncc(C(N)=O)c(Nc3cccc(O[C@H]4CCN(C(=O)OC(C)(C)C)C4)c3)c12` showed an IC50 against Phosphodiesterase 4 above 0.3 µM.
`CC(=O)N1CC[C@H](Oc2cccc(Nc3c(C(N)=O)cnc4c3c(C)nn4C)c2)C1` came in with a concentration for half-maximal inhibition (IC50) against Phosphodiesterase 4 above 0.3 µM.
Turning to `Cc1nn(C)c2ncc(C(N)=O)c(Nc3ccccc3)c12`, the IC50 against Phosphodiesterase 4 came to 0.036 µM. Moreover, the inhibition in vivo at 10 mg/kg in the test with Rattus norvegicus [7] came out at 48%.
Turning to `COc1cccc(Nc2c(C(N)=O)cnc3c2c(C)nn3C)c1`, the No. of ferrets in the test on Mustela putorius furo [8] is given as 0; in the test on Mustela putorius furo [2], 0; in the test on Mustela putorius furo [3] it was 1. Moreover, the IC50 in the test with Cavia porcellus [9] is 6.8 µM; in the test filed under Homo sapiens, 3 µM; against Phosphodiesterase 4 it was 0.005 µM. For the same compound, the ED50 in the test on Rattus norvegicus [10] was 23 mg/kg; in the test on Rattus norvegicus [6] it was 2.4 mg/kg.
In turn, `Cc1nn(C)c2ncc(C(N)=O)c(Nc3cccc(C#N)c3)c12` displayed an IC50 on Phosphodiesterase 4 of 0.085 µM. In the test on Rattus norvegicus [11], this compound gave an inhibition in vivo at 3 mg/kg of 2%.
As for `COc1ccccc1Nc1c(C(N)=O)cnc2c1c(C)nn2C`, on Phosphodiesterase 4, the IC50 is 0.076 µM. The inhibition in vivo at 10 mg/kg in the test on Rattus norvegicus [7] is 68%.
The like results for `Cc1nn(C)c2ncc(C(N)=O)c(Nc3cccc(OC4CCCC4)c3)c12` were, in that order, above 0.1 µM and 39%.
For `Cc1nn(C)c2ncc(C(N)=O)c(Nc3cccc(O[C@H]4CCN(S(C)(=O)=O)C4)c3)c12`, the IC50 against Phosphodiesterase 4 was 0.25 µM.
Compound `Cc1nn(C)c2ncc(C(N)=O)c(Nc3cccc(O[C@H]4CCNC4)c3)c12` displayed an IC50 at Phosphodiesterase 4 above 0.3 µM.
Regarding `Cc1nn(C)c2ncc(C(N)=O)c(Nc3cccc(OC4CCC4)c3)c12`, the IC50 at Phosphodiesterase 4 was above 0.1 µM.
As to `COc1ccc([C@]2(C#N)CC[C@@H](C(=O)O)CC2)cc1OC1CCCC1` [CILOMILAST], in the test on Cavia porcellus [9], the IC50 stood at 4.5 µM. Besides, the ED50 is 5.7 mg/kg in the test filed under Rattus norvegicus [5] and 1.7 mg/kg in the test on Rattus norvegicus [12].
